In patent US12486267B2, “Imidazo[1,2-A]pyridine and [1,2,4]triazolo[1,5-A]pyridine derivatives as TLR9 inhibitors for the treatment of fibrosis” (BRISTOL-MYERS SQUIBB COMPANY, priority 2020, dated 2025):

Legend:
Assay type in all cases: cell-based
human TLR8 = molecular target: T1, human TLR8 (Homo sapiens, UniProt Q9NR97); assay: TLR8 inhibition reporter assay (HEK-Blue cells, SEAP reporter); conditions: HEK-Blue cells overexpressing human TLR8; stimulated with R848 15.9 μM; 22 hour incubation; SEAP readout
T1 sequence (Q9NR97 27-1041): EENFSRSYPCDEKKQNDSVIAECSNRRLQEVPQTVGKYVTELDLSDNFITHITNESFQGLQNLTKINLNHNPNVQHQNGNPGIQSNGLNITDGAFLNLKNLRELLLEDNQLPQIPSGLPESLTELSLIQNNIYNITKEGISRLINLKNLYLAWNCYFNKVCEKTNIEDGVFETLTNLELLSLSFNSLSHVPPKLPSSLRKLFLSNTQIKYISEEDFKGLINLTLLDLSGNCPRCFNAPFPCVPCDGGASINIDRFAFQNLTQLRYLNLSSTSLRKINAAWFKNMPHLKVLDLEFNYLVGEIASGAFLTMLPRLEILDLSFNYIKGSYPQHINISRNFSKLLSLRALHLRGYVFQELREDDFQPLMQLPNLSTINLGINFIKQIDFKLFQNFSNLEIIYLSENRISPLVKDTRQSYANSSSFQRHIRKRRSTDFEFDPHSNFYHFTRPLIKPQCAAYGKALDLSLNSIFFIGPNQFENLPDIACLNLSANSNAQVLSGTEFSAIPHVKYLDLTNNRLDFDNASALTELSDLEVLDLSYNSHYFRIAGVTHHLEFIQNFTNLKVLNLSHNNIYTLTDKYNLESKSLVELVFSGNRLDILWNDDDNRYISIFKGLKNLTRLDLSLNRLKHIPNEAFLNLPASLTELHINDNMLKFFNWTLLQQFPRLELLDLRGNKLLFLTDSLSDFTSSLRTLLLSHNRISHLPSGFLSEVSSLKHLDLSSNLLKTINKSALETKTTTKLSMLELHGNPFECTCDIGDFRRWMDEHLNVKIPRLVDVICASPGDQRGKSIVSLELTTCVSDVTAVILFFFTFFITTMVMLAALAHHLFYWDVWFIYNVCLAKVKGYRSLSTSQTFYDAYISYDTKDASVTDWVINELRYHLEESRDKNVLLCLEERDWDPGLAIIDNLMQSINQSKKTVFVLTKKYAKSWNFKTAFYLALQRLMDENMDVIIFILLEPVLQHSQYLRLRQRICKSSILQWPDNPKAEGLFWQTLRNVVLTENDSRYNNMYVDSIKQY
Procedure, shortened: (§1)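 HEK-Blue cells with NF-κB/AP-1-driven SEAP pre-treated 30 min with compound (0.05 nM–50 μM), then stimulated with gardiquimod 7.5 μM (TLR7), R848 15.9 μM (TLR8) or ODN2006 5 nM (TLR9). SEAP detected after 22 h at 37 °C; percent inhibition relative to agonist-plus-DMSO and known-inhibitor wells.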

human TLR7 = molecular target: T2, human TLR7 (Homo sapiens, UniProt Q9NYK1); assay: TLR7 inhibition reporter assay (HEK-Blue cells, SEAP reporter); conditions: HEK-Blue cells overexpressing human TLR7; stimulated with gardiquimod 7.5 μM; 22 hour incubation; SEAP readout
T2 sequence (Q9NYK1 27-1049): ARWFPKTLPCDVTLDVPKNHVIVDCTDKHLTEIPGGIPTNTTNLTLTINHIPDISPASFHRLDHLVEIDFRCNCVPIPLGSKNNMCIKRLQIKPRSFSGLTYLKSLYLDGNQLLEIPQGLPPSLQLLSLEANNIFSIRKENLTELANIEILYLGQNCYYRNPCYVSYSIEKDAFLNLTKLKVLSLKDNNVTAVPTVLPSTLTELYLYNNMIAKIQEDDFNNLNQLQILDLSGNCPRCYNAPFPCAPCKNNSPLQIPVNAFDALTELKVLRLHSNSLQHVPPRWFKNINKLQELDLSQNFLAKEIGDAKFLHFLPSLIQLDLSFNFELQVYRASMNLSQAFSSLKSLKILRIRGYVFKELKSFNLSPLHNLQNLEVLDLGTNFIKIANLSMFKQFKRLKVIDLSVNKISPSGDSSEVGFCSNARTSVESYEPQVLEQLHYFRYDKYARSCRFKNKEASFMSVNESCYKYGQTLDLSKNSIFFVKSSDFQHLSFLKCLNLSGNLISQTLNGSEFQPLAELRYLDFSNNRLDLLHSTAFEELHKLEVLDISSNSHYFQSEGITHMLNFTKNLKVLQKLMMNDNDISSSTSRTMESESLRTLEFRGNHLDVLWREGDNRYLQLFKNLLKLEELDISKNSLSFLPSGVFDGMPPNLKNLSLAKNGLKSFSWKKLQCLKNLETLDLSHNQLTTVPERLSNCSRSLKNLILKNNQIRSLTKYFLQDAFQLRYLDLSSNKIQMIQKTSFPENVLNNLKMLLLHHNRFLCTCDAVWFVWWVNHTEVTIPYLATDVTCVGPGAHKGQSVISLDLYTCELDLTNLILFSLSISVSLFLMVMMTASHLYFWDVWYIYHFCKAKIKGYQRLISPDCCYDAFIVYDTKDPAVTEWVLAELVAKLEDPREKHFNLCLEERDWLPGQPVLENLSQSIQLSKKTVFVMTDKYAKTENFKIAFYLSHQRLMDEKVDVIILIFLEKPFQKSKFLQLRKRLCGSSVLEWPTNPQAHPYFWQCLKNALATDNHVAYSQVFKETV
Procedure, shortened: as §1

human TLR9 = molecular target: T3, human TLR9 (Homo sapiens, UniProt Q9NR96); assay: TLR9 inhibition reporter assay (HEK-Blue cells, SEAP reporter); conditions: HEK-Blue cells overexpressing human TLR9; stimulated with ODN2006 5 nM; 22 hour incubation; SEAP readout
T3 sequence (Q9NR96 26-1032): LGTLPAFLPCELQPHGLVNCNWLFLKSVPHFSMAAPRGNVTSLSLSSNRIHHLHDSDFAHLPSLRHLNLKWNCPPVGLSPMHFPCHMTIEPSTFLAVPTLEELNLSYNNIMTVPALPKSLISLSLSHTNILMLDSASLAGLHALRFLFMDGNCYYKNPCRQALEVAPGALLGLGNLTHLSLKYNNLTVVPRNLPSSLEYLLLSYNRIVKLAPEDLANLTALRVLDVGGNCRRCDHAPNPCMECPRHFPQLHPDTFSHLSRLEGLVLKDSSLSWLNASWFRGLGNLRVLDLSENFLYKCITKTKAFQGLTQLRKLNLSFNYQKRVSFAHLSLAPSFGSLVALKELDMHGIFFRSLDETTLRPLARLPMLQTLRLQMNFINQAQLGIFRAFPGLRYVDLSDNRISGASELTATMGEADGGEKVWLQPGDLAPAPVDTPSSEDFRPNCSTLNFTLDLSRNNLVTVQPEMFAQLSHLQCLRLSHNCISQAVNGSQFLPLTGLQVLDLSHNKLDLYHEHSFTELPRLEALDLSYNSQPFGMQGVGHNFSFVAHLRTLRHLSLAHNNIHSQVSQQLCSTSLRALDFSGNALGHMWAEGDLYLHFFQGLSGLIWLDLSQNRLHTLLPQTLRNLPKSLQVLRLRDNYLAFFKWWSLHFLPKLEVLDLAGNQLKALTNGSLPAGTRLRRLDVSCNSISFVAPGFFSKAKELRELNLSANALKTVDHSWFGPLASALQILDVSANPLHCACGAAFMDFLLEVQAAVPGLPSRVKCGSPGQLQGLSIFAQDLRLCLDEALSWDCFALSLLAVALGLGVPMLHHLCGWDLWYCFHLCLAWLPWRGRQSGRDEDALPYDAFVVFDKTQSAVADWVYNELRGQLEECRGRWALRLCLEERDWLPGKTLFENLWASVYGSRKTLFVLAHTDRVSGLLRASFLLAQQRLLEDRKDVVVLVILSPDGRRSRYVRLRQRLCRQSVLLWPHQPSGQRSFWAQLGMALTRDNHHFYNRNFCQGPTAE
Procedure, shortened: as §1

Row | Structure (SMILES) | IC50 (human TLR8) [µM] | IC50 (human TLR7) [µM] | IC50 (human TLR9) [µM]
1 | COc1ccc(-c2cn3c(n2)CCC(C2CCN(C4CCN(C(=O)C(C)C)CC4)CC2)C3)cc1OC (single isomer, unassigned) [Example 41, 1-(4-(2-(3,4-dimethoxyphenyl)-5,6,7,8-tetrahydroimidazo[1,2-a]pyridin-6-yl)-[1,4′-bipiperidin]-1′-yl)-2-methylpropan-1-one] | > 50 | > 50 | 0.161
2 | COc1ccc(-c2cn3c(n2)CCC(C2CCN(C4CCN(C(=O)C5CC5)CC4)CC2)C3)cc1OC (single isomer, unassigned) [Example 44, cyclopropyl(4-(2-(3,4-dimethoxyphenyl)-5,6,7,8-tetrahydroimidazo[1,2-a]pyridin-6-yl)-[1,4′-bipiperidin]-1′-yl)methanone] | > 50 | 45 | 0.314
3 | COc1ccc(-c2cn3c(n2)CCC(C2CCN(C4CC5(C4)CN(C(C)C)C5)CC2)C3)cc1OC (single isomer, unassigned) [Example 46, 2-(3,4-dimethoxyphenyl)-6-(1-(2-isopropyl-2-azaspiro[3.3]heptan-6-yl)piperidin-4-yl)-5,6,7,8-tetrahydroimidazo[1,2-a]pyridine] | > 50 | 30 | 0.272
4 | COc1ccc(-c2cn3c(n2)CCC(C2CCN(C4CC5(C4)CN(C4CCC4)C5)CC2)C3)cc1OC (single isomer, unassigned) [Example 49, 6-(1-(2-cyclobutyl-2-azaspiro[3.3]heptan-6-yl)piperidin-4-yl)-2-(3,4-dimethoxyphenyl)-5,6,7,8-tetrahydroimidazo[1,2-a]pyridine] | > 50 | 1.8 | 0.022
5 | COc1ccc(-c2cn3c(n2)CCC(C2CCN(C4CC5(C4)CN(CC(C)C)C5)CC2)C3)cc1OC (single isomer, unassigned) [Example 53, 2-(3,4-dimethoxyphenyl)-6-(1-(2-isobutyl-2-azaspiro[3.3]heptan-6-yl)piperidin-4-yl)-5,6,7,8-tetrahydroimidazo[1,2-a]pyridine] | > 50 | 2.6 | 0.022
6 | COc1ccc(-c2cn3c(n2)CCC(C2CCN(C4CC5(C4)CN(CC(C)C)C5)CC2)C3)cc1OC (single isomer, unassigned) [Example 54, 2-(3,4-dimethoxyphenyl)-6-(1-(2-isobutyl-2-azaspiro[3.3]heptan-6-yl)piperidin-4-yl)-5,6,7,8-tetrahydroimidazo[1,2-a]pyridine] | > 50 | 0.83 | 0.0015
7 | Cc1cc(C2CCN(C3CC4CCC(C3)N4C(C)C)CC2)cn2cc(-c3ccc(S(C)(=O)=O)cc3)nc12 (single isomer, unassigned) [Example 63, 6-(1-(8-isopropyl-8-azabicyclo[3.2.1]octan-3-yl)piperidin-4-yl)-8-methyl-2-(4-(methylsulfonyl)phenyl)imidazo[1,2-a]pyridine] | 9.5 | 5.8 | 0.097

Now from value to compound:

Row | IC50 (human TLR8) [µM] | IC50 (human TLR7) [µM] | IC50 (human TLR9) [µM] | Structure (SMILES)
8 | > 50 | 45 | 0.375 | COc1ccc(-c2cn3c(n2)CCC(C2CCN(C4CCN(C(=O)C5CC5)CC4)CC2)C3)cc1OC (single isomer, unassigned) [Example 43, cyclopropyl(4-(2-(3,4-dimethoxyphenyl)-5,6,7,8-tetrahydroimidazo[1,2-a]pyridin-6-yl)-[1,4′-bipiperidin]-1′-yl)methanone]
9 | > 50 | > 50 | 0.047 | COc1ccc(-c2cn3c(n2)CCC(C2CCN(C4CC5(C4)CN(C(C)C)C5)CC2)C3)cc1OC (single isomer, unassigned) [Example 47, 2-(3,4-dimethoxyphenyl)-6-(1-(2-isopropyl-2-azaspiro[3.3]heptan-6-yl)piperidin-4-yl)-5,6,7,8-tetrahydroimidazo[1,2-a]pyridine]
10 | > 50 | 5.3 | 0.04 | COc1ccc(-c2cn3c(n2)CCC(C2CCN(C4CC5(C4)CN(C4CCC4)C5)CC2)C3)cc1OC (single isomer, unassigned) [Example 50, 6-(1-(2-cyclobutyl-2-azaspiro[3.3]heptan-6-yl)piperidin-4-yl)-2-(3,4-dimethoxyphenyl)-5,6,7,8-tetrahydroimidazo[1,2-a]pyridine]
11 | > 50 | 3.8 | 0.54 | COc1ccc(-c2cn3c(n2)CCC(C2CCN(C4CCN(CC5CC5)CC4)CC2)C3)cc1OC (single isomer, unassigned) [Example 56, 6-(1′-(cyclopropylmethyl)-[1,4′-bipiperidin]-4-yl)-2-(3,4-dimethoxyphenyl)-5,6,7,8-tetrahydroimidazo[1,2-a]pyridine]
12 | > 50 | 4.2 | 0.036 | COc1ccc(-c2cn3c(n2)CCC(C2CCN(C4CCN(CC5CC5)CC4)CC2)C3)cc1OC (single isomer, unassigned) [Example 57, 6-(1′-(cyclopropylmethyl)-[1,4′-bipiperidin]-4-yl)-2-(3,4-dimethoxyphenyl)-5,6,7,8-tetrahydroimidazo[1,2-a]pyridine]
